Source: PubChem BioAssay AID256 (DTP/NCI, 2004)
Inconclusive results and toxic doses are left out. The calls were made as follows: active = survival T/C of 150% or more; inactive = T/C below 125% in these data.

System: CD2F1 mice, L1210 leukemia ip, survival T/C
Assay: NCI In Vivo Anticancer Drug Screen. Data for tumor model L1210 Leukemia (intraperitoneal) in CD2F1 (CDF1) mice
Conditions: higher = longer survival
Summary of the method: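 In this screen, transplantable tumors were grown in mice given either the compound or its vehicle. Results were expressed as the treated measurement relative to the control measurement.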

[1] = endpoint: mean survival time, dose: 100.0 mg/kg/injection, schedule: Q04DX003 (ip), vehicle: saline with Tween-80
[2] = endpoint: mean survival time, dose: 400.0 mg/kg/injection, schedule: Q04DX003 (ip), vehicle: saline with Tween-80
[3] = endpoint: mean survival time, dose: 100.0 mg/kg/injection, schedule: Q04DX003 (ip), vehicle: saline
[4] = endpoint: mean survival time, dose: 200.0 mg/kg/injection, schedule: Q04DX003 (ip), vehicle: saline
[5] = endpoint: mean survival time, dose: 400.0 mg/kg/injection, schedule: Q04DX003 (ip), vehicle: saline
[6] = endpoint: mean survival time, dose: 100.0 mg/kg/injection, schedule: Q01DX009 (ip), vehicle: saline
[7] = endpoint: mean survival time, dose: 100.0 mg/kg/injection, schedule: Q01DX009 (ip), vehicle: saline with Tween-80
[8] = endpoint: mean survival time, dose: 200.0 mg/kg/injection, schedule: Q01DX009 (ip), vehicle: saline with Tween-80
[9] = endpoint: mean survival time, dose: 200.0 mg/kg/injection, schedule: Q04DX003 (ip), vehicle: saline with Tween-80
[10] = endpoint: mean survival time, dose: 400.0 mg/kg/injection, schedule: Q01DX009 (ip), vehicle: saline with Tween-80

Measured: T/C

CCOC(=O)c1cc([N+](=O)[O-])c(Sc2ncnc3nc[nH]c23)c([N+](=O)[O-])c1
inactive: endpoint: mean survival time, dose: 0.63 mg/kg/injection, schedule: Q01DX005 (ip), vehicle: other 104 % of control | endpoint: mean survival time, dose: 1.25 mg/kg/injection, schedule: Q01DX005 (ip), vehicle: other 109 % of control | endpoint: mean survival time, dose: 2.5 mg/kg/injection, schedule: Q01DX005 (ip), vehicle: other 101 % of control | endpoint: mean survival time, dose: 5.0 mg/kg/injection, schedule: Q01DX005 (ip), vehicle: other 114 % of control | endpoint: mean survival time, dose: 10.0 mg/kg/injection, schedule: Q01DX005 (ip), vehicle: other 114 % of control | endpoint: mean survival time, dose: 20.0 mg/kg/injection, schedule: Q01DX005 (ip), vehicle: other 113 % of control | endpoint: mean survival time, dose: 40.0 mg/kg/injection, schedule: Q01DX005 (ip), vehicle: other 120 % of control | endpoint: mean survival time, dose: 80.0 mg/kg/injection, schedule: Q01DX005 (ip), vehicle: other 117 % of control

CCC(/C=C/C(C)C1CCC2C3CCC45CC4CCC5(C)C3CCC12C)C(C)C (centres undefined)
inactive: [1] 97 % of control | [2] 87 % of control

OC1CCCCCCCCCCC12OCCO2 (centres undefined)
inactive: endpoint: mean survival time, dose: 100.0 mg/kg/injection, schedule: Q04DX002 (ip), vehicle: other 98 % of control | endpoint: mean survival time, dose: 200.0 mg/kg/injection, schedule: Q04DX002 (ip), vehicle: other 113 % of control | endpoint: mean survival time, dose: 400.0 mg/kg/injection, schedule: Q04DX002 (ip), vehicle: other 95 % of control

O=S(=O)(OCCCCCOS(=O)(=O)c1cccnc1)c1cccnc1
inactive: endpoint: mean survival time, dose: 10.0 mg/kg/injection, schedule: Q04DX002 (ip), vehicle: saline with Tween-80 95 % of control | endpoint: mean survival time, dose: 40.0 mg/kg/injection, schedule: Q04DX002 (ip), vehicle: saline with Tween-80 98 % of control

C[N+](C)(Cc1ccccc1)c1ccccc1
inactive: endpoint: mean survival time, dose: 10.0 mg/kg/injection, schedule: Q01DX009 (ip), vehicle: saline 109 % of control | endpoint: mean survival time, dose: 20.0 mg/kg/injection, schedule: Q01DX009 (ip), vehicle: saline 94 % of control

N/N=C(\N)c1ccc2ccc3cccnc3c2n1
inactive: [3] 89 % of control | [4] 104 % of control | [5] 108 % of control

C[N+](C)(C)c1ncnc2c1ncn2C1CCCO1 (centres undefined)
inactive: endpoint: mean survival time, dose: 12.5 mg/kg/injection, schedule: Q01DX009 (ip), vehicle: saline 93 % of control | endpoint: mean survival time, dose: 25.0 mg/kg/injection, schedule: Q01DX009 (ip), vehicle: saline 98 % of control | endpoint: mean survival time, dose: 50.0 mg/kg/injection, schedule: Q01DX009 (ip), vehicle: saline 112 % of control | [6] 101 % of control

COc1ccc2c(c1)CCCC2=O
inactive: [7] 102 % of control | [1] 90 % of control | [8] 94 % of control | [9] 93 % of control | [2] 98 % of control

O=Cc1c2c(cc3ccccc13)Nc1ccccc1N2
inactive: endpoint: mean survival time, dose: 100.0 mg/kg/injection, schedule: Q04DX002 (ip), vehicle: saline + alcohol 89 % of control | endpoint: mean survival time, dose: 200.0 mg/kg/injection, schedule: Q04DX002 (ip), vehicle: saline + alcohol 89 % of control | endpoint: mean survival time, dose: 400.0 mg/kg/injection, schedule: Q04DX002 (ip), vehicle: saline + alcohol 86 % of control

CCCCCCCCCCCCCCCCC/C=C1\CC(=O)OC1=O
inactive: [1] 88 % of control

Cc1ccccc1N=Cc1ccc(N(C)C)cc1
inactive: [7] 96 % of control | [1] 97 % of control | [8] 95 % of control | [9] 103 % of control | [10] 90 % of control | [2] 98 % of control

CC/C(=C(/CC)c1ccc(OP(=O)(Cl)N(CCCl)CCCl)cc1)c1ccc(OP(=O)(Cl)N(CCCl)CCCl)cc1 (centres undefined)
inactive: endpoint: median survival time, dose: 31.25 mg/kg/injection, schedule: Q01DX001 (ip), vehicle: distilled water + Tween-80 108 % of control | endpoint: median survival time, dose: 62.5 mg/kg/injection, schedule: Q01DX001 (ip), vehicle: distilled water + Tween-80 101 % of control | endpoint: median survival time, dose: 125.0 mg/kg/injection, schedule: Q01DX001 (ip), vehicle: distilled water + Tween-80 97 % of control | endpoint: median survival time, dose: 250.0 mg/kg/injection, schedule: Q01DX001 (ip), vehicle: distilled water + Tween-80 100 % of control | endpoint: median survival time, dose: 500.0 mg/kg/injection, schedule: Q01DX001 (ip), vehicle: distilled water + Tween-80 100 % of control

CNc1c2c(nc3ccccc13)CCCC2
inactive: endpoint: mean survival time, dose: 5.0 mg/kg/injection, schedule: Q04DX003 (ip), vehicle: saline with Tween-80 96 % of control

O=NO.O=NO.[NH-]C1CCCCC1[NH-].[Pd+2] (centres undefined)
inactive: endpoint: mean survival time, dose: 3.13 mg/kg/injection, schedule: Q04DX003 (ip), vehicle: dextrose 92 % of control | endpoint: mean survival time, dose: 6.25 mg/kg/injection, schedule: Q04DX003 (ip), vehicle: dextrose 93 % of control | endpoint: mean survival time, dose: 12.5 mg/kg/injection, schedule: Q01DX001 (ip), vehicle: dextrose 95 % of control | endpoint: mean survival time, dose: 12.5 mg/kg/injection, schedule: Q04DX003 (ip), vehicle: dextrose 98 % of control | endpoint: mean survival time, dose: 25.0 mg/kg/injection, schedule: Q01DX001 (ip), vehicle: dextrose 94 % of control | endpoint: mean survival time, dose: 50.0 mg/kg/injection, schedule: Q01DX001 (ip), vehicle: dextrose 91 % of control | endpoint: mean survival time, dose: 50.0 mg/kg/injection, schedule: Q04DX003 (ip), vehicle: dextrose 95 % of control | endpoint: mean survival time, dose: 100.0 mg/kg/injection, schedule: Q01DX001 (ip), vehicle: dextrose 109 % of control | endpoint: mean survival time, dose: 100.0 mg/kg/injection, schedule: Q04DX003 (ip), vehicle: dextrose 100 % of control

CC(=O)Nc1ncc(CN2CCCCC2)s1
inactive: endpoint: mean survival time, dose: 100.0 mg/kg/injection, schedule: Q04DX002 (ip), vehicle: Klucel (hydroxypropylcellulose) (HPC) 100 % of control | endpoint: mean survival time, dose: 200.0 mg/kg/injection, schedule: Q04DX002 (ip), vehicle: Klucel (hydroxypropylcellulose) (HPC) 103 % of control

O=C(O)Cc1cc(O)c(CC(=O)O)cc1O
inactive: endpoint: mean survival time, dose: 100.0 mg/kg/injection, schedule: Q04DX002 (ip), vehicle: saline with Tween-80 95 % of control | endpoint: mean survival time, dose: 200.0 mg/kg/injection, schedule: Q04DX002 (ip), vehicle: saline with Tween-80 95 % of control | endpoint: mean survival time, dose: 400.0 mg/kg/injection, schedule: Q04DX002 (ip), vehicle: saline with Tween-80 91 % of control

CCOc1ccccc1NC(=O)c1ccc(Cl)cc1
inactive: [1] 97 % of control | [9] 100 % of control | [2] 103 % of control

Cc1ccc(S(=O)(=O)N/N=C/c2ccc(Cl)s2)cc1
inactive: endpoint: mean survival time, dose: 100.0 mg/kg/injection, schedule: Q01DX001 (ip), vehicle: saline with Tween-80 94 % of control | endpoint: mean survival time, dose: 200.0 mg/kg/injection, schedule: Q01DX001 (ip), vehicle: saline with Tween-80 97 % of control | endpoint: mean survival time, dose: 400.0 mg/kg/injection, schedule: Q01DX001 (ip), vehicle: saline with Tween-80 97 % of control

Cc1ccc(C(=O)C[n+]2cccc3ccccc32)c(C)c1
inactive: endpoint: mean survival time, dose: 6.25 mg/kg/injection, schedule: Q01DX009 (ip), vehicle: saline with Tween-80 101 % of control | endpoint: mean survival time, dose: 12.5 mg/kg/injection, schedule: Q01DX009 (ip), vehicle: saline with Tween-80 94 % of control | endpoint: mean survival time, dose: 25.0 mg/kg/injection, schedule: Q01DX009 (ip), vehicle: saline with Tween-80 95 % of control

CC(=O)OC1C(CO)OC(n2ccc3c(N)ncnc32)C1O (centres undefined)
inactive: endpoint: mean survival time, dose: 5.0 mg/kg/injection, schedule: Q01DX001 (ip), vehicle: saline 104 % of control | endpoint: mean survival time, dose: 10.0 mg/kg/injection, schedule: Q01DX001 (ip), vehicle: saline 117 % of control | endpoint: mean survival time, dose: 20.0 mg/kg/injection, schedule: Q01DX001 (ip), vehicle: saline 117 % of control | endpoint: mean survival time, dose: 40.0 mg/kg/injection, schedule: Q01DX001 (ip), vehicle: saline 110 % of control

CCCCCCCCCCCCCCCC(=O)N1CCC(N2CCCCC2)CC1
inactive: endpoint: mean survival time, dose: 50.0 mg/kg/injection, schedule: Q01DX009 (ip), vehicle: saline with Tween-80 95 % of control | [7] 97 % of control | [1] 92 % of control | [8] 92 % of control | [9] 88 % of control

CCOC(=O)CC(=O)c1ccc(C)cc1
inactive: [7] 96 % of control | [8] 105 % of control | [10] 89 % of control

Nc1ncnc2c1ncn2C1CC(O)C(CO)O1 (centres undefined)
inactive: endpoint: mean survival time, dose: 600.0 mg/kg/injection, schedule: Q03HX024 (ip), vehicle: saline with Tween-80 97 % of control | endpoint: mean survival time, dose: 900.0 mg/kg/injection, schedule: Q03HX024 (ip), vehicle: saline with Tween-80 103 % of control

NC(=O)C(Cc1ccccc1)NC(=O)c1ccccc1 (centres undefined)
inactive: [7] 91 % of control

O=C(O)COc1cccc(OCC(=O)O)c1
inactive: [1] 100 % of control | [3] 96 % of control | [9] 91 % of control | [4] 94 % of control | [5] 100 % of control

CC(C)(C)c1cccc(C(C)(C)C)c1O
inactive: [6] 95 % of control | endpoint: mean survival time, dose: 200.0 mg/kg/injection, schedule: Q01DX009 (ip), vehicle: saline 94 % of control | endpoint: mean survival time, dose: 400.0 mg/kg/injection, schedule: Q01DX009 (ip), vehicle: saline 106 % of control

O=Cc1c2ccc(Cl)cc2nc2ccc(Cl)cc12
inactive: [1] 101 % of control | [9] 98 % of control | [2] 94 % of control
